From article PMC4186449 (Pharmacology Research & Perspectives, 2014)

Molecular target: T1, LdTOPII (Leishmania donovani, UniProt Q9XZN0)
T1 sequence (Q9XZN0 1-1236): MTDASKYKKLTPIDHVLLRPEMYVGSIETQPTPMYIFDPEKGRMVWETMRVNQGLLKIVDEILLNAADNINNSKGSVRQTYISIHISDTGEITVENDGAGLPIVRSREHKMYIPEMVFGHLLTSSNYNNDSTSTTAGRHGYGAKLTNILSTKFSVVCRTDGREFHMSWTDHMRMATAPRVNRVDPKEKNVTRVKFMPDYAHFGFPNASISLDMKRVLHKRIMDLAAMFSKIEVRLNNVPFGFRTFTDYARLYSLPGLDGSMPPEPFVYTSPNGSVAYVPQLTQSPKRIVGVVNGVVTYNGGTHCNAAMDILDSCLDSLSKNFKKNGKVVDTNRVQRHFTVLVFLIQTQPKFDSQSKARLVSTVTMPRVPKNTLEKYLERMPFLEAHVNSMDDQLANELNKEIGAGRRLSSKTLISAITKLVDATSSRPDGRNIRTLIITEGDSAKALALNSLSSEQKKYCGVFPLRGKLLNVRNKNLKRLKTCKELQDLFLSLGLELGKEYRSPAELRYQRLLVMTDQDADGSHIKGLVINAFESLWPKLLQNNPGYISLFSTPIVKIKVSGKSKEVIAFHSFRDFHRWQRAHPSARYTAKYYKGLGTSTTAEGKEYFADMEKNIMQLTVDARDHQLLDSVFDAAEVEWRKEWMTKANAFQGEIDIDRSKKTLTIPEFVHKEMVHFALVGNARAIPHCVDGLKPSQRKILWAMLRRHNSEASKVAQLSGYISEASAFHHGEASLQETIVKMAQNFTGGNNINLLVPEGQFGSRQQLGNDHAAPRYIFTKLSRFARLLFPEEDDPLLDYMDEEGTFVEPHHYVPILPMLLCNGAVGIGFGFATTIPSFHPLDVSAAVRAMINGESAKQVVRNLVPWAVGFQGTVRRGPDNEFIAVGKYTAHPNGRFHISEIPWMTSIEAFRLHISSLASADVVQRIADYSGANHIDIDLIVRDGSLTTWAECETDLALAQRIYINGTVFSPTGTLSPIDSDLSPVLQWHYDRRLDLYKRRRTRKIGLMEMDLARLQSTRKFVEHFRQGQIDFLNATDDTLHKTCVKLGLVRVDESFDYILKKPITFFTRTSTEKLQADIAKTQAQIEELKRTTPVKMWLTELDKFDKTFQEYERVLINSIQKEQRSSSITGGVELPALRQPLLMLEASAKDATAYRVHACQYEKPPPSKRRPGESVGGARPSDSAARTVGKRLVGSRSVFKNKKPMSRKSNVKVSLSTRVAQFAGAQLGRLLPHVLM
Conditions: 2 mmol/L ATP, 30°C

Structure (SMILES): Nc1ncnc2c1ncn2[C@@H]1O[C@H](COP(=O)(O)OP(=O)(O)OP(=O)(O)O)[C@@H](O)[C@H]1O [ATP]
- pyruvate kinase/lactate dehydrogenase coupled ATPase assay: JVPH3 and JVPH4 did not interfere with LdTOPII-mediated ATP hydrolysis
